One series has as its system healthy adults. Briefly: Phase I single-dose safety and tolerability study of TPIP in healthy adults. It counts as in vivo, human. The method, then: Specifically, in a Phase I safety, tolerability, and PK study, healthy adults were administered single doses of 112.5 μg, 225 μg, 450 μg, and 675 μg of a compound of Formula (II).
Series [1] relates to subjects with pulmonary hypertension, including pulmonary arterial hypertension. The series can be described thus: Phase 2 safety and efficacy study in subjects with pulmonary hypertension. It counts as in vivo, human. The method, then: In a Phase 2 safety and efficacy study, the following doses of were investigated in subjects with pulmonary hypertension, including pulmonary arterial hypertension: 80 μg, 160 μg, 240 μg, 320 μg, 400 μg, 480 μg, and 640 μg. In this study, patients were administered a starting dose of 80 μg of the TPIP and the dose was titrated up to 640 μg according to FIG. 2.

The nature of series [2]: Nonclinical studies of TP: conversion of prodrug to treprostinil. As to conditions: nonclinical (in vitro and in vivo). Type of series: in vitro ADME. The source says: (§1) Treprostinil palmitil (TP) is a hexadecyl ester prodrug of treprostinil (TRE). In the lung, TP is hydrolyzed by esterases to TRE and hexadecanol.
A short description of series [3]: Nonclinical studies of TP: delivery / PK and PD profile. It counts as in vivo.
Description: as §1

In another series the test system is rodent model of PAH. The series can be described thus: Rodent model of PAH. Conditions: inhibits associated adverse pathology and pathophysiology. It counts as in vivo.
Description: as §1

The nature of series [4]: Preclinical safety / toxicology of TP. It counts as in vivo. Conditions: nonclinical.
Description: as §1

On to `CCCCCCCCCCCCCCCCOC(=O)COc1cccc2c1C[C@H]1C[C@@H](O)[C@H](CC[C@@H](O)CCCCC)[C@H]1C2` [treprostinil palmitil], for which the “serious or severe TEAEs (printed TEALs)” value with healthy adults (single doses 112.5, 225, 450, 675 μg) was “no serious or severe TEALs were observed”. Besides, the safety and tolerability entry in the series with healthy adults (single doses 112.5, 225, 450, 675 μg / highest doses tested) is “safe and well-tolerated”. Besides, the tolerability entry in series [1] (80 μg to 640 μg, titrated) is reported as “well tolerated”. Moreover, the “tolerability of 640 μg” value in series [1] (640 μg, highest dose administered in a clinical trial) was “well tolerated”. For the same molecule, in series [1] (higher doses), the “efficacy at higher doses” value is “promising efficacy”. For the same molecule, the conversion to treprostinil entry in series [2] was “converted from the prodrug to the active drug, treprostinil”. Besides, the delivery of treprostinil result in series [3] was “sustained delivery of treprostinil to the lungs and systemic circulation”. For the same molecule, the “efficacy in PAH model” value in the series with rodent model of PAH is “efficacious in a rodent model of PAH”. In series [4], the preclinical safety entry is listed as “did not demonstrate concerning preclinical safety or toxicological findings”.

(Values after patent US20260325546A1, “METHODS OF TREATMENT USING DRY POWDER COMPOSITIONS OF TREPROSTINIL PRODRUGS” (Insmed Incorporated, priority 2024, published 2026).)
